Earlier results as cited in patent US20210113461A1, “Methods of Treating Fungal Infections” (CIPLA TECHNOLOGIES LLC, priority 2018, published 2021).
Like-named read-outs stand apart in the source and are kept apart here.

How the values were obtained:
[1] = oral solution

## CCC(C)n1ncn(-c2ccc(N3CCN(c4ccc(OCC5COC(Cn6cncn6)(c6ccc(Cl)cc6Cl)O5)cc4)CC3)cc2)c1=O (centres unmarked) [Itraconazole, itraconazole]
[1]
  half-life at steady state: 39.7 ± 13 h
  steady-state AUC0-24h under fasted conditions as % of exposure under fed conditions: 131±30%
[1]; 200 mg daily dose, fasted
  mean AUC0-24h at steady-state: 29,271±10,285 ng·h/mL
  mean Cmax at steady-state: 1,963±601 ng/mL
  mean tmax at steady-state: 2.5 ± 0.8 h
[1]; healthy volunteers
  increase of bioavailability under fasted conditions: 30%
Plasma protein; capsules
  bound by plasma protein: 99.6%
Plasma protein; oral solution
  bound by plasma protein: 99.8%
